Experiments:
[1] = Inhibition of Influenza A virus A/California/04/2009 (H1N1) N-terminal his tagged domain of PA endonuclease expressed in Escherichia coli BL21 (DE3) cells preincubated with enzyme for 1 hr followed by RNA addition and measured after 90 mins by MALDI-FTICR-MS analysis
[2] = Binding affinity to Influenza A virus A/California/04/2009 (H1N1) wild type N-terminal his tagged domain of PA endonuclease expressed in Escherichia coli BL21 (DE3) cells assessed as dissociation constant by MST assay

SMILES | IC50 [1] | Kd [2]
CC(C)(NC(=O)OCc1ccccc1)c1nc(O)c(O)c(C(=O)NCCc2ccc(F)cc2)n1 | 6450 nM | –
O=C1NCCc2cccc(c2)OC/C=C\COc2cccc(c2)-c2nc1c(O)c(=O)[nH]2 | 4960 nM | –
COc1cnccc1CCNC(=O)c1nc(C(C)(C)NC(=O)OCc2ccccc2)[nH]c(=O)c1O | 1970 nM | –
CC(C)(NC(=O)OCc1ccccc1)c1nc(C(=O)NCCn2cnc3c(N)ncnc32)c(O)c(=O)[nH]1 | 1620 nM | –
COc1cnccc1CCNC(=O)c1nc(-c2ccccc2)[nH]c(=O)c1O | 1220 nM | –
CC(C)(NC(=O)OCc1ccccc1)c1nc(C(=O)NCc2ccc(F)cc2)c(O)c(=O)[nH]1 | > 20000 nM | –
COc1cc(CCNC(=O)c2nc(-c3ccccc3C(F)(F)F)[nH]c(=O)c2O)ccc1O | 270 nM | –
O=C1NCCc2cccc(c2)OCCCCOc2cccc(c2)-c2nc1c(O)c(=O)[nH]2 | > 20000 nM | –
COc1cnccc1CCNC(=O)c1nc(-c2ccccc2C(F)(F)F)[nH]c(=O)c1O | 420 nM | 54 nM
O=C1c2c(O)c(=O)ccn2N([C@@H]2c3ccccc3SCc3c2ccc(F)c3F)C2COCCN12 (stereo partly drawn) | 50 nM | 6 nM
COc1cnccc1CCNC(=O)c1nc(-c2ccccc2F)[nH]c(=O)c1O | 820 nM | –
O=C1NCCc2cccc(c2)OC/C=C/COc2cccc(c2)-c2nc1c(O)c(=O)[nH]2 | 12500 nM | –
COc1cnccc1CCNC(=O)c1nc(Cc2ccccc2C(F)(F)F)[nH]c(=O)c1O | > 20000 nM | –
COc1cnccc1CCNC(=O)c1nc(-c2cccc(C(F)(F)F)c2)[nH]c(=O)c1O | 4530 nM | –
Nc1ncnc2c1ncn2CCNC(=O)c1nc(-c2ccccc2C(F)(F)F)[nH]c(=O)c1O | 290 nM | 18 nM
COc1cnccc1CCNC(=O)c1nc(-c2c(F)cccc2F)[nH]c(=O)c1O | 1110 nM | –
COc1cnccc1CCNC(=O)c1nc(-c2ccc(C(F)(F)F)cc2)[nH]c(=O)c1O | > 20000 nM | –
COc1cnccc1CCNC(=O)c1nc(-c2ccccc2C)[nH]c(=O)c1O | 390 nM | –
COc1cc(CCNC(=O)c2nc(C(C)(C)NC(=O)OCc3ccccc3)[nH]c(=O)c2O)ccc1O | 620 nM | –
Cc1nnc(C(=O)NC(C)(C)c2nc(C(=O)NCc3ccc(F)cc3)c(O)c(=O)n2C)o1 [RALTEGRAVIR] | > 20000 nM | –
